Laboratory results reported in publication PMC12735872, “Development of ^18F/^11C-Labeled Pyrrolo-Pyridine/Pyrimidine LRRK2 Selective PET Radioligands” (Pharmaceuticals, 2025).
Like-named read-outs stand apart in the source and are kept apart here.

Columns and labels:
LRRK2 wild-type (WT) = LRRK2 wild-type (WT) (Homo sapiens, UniProt Q5S007); assay: LRRK2 wild-type Lanthascreen; type: biochemical; settings: assay described in ref. 16; read-out: LRRK2 Lanthascreen WT cKi
LRRK2 G2019S = LRRK2 G2019S (Homo sapiens, UniProt Q5S007, G2019S); assay: LRRK2 G2019S Lanthascreen; type: biochemical; settings: assay described in ref. 16; read-out: LRRK2 Lanthascreen G2019S cKi
MDR1 (P-gp) = assay: MDR1-MDCK permeability and efflux ratio; type: in vitro ADME; settings: dog, assay described in ref. 17
From the text: Table 1 LRRK2 wild-type (WT) and G2019S Lanthascreen, MDR1-MDCK permeability (Papp A:B), and efflux ratio (B:A/A:B), free fractions in plasma (fp) and brain homogenate (fb) and PET Multi-Parameter Optimization (MPO) score of Compounds 1, 2, and 3. | column: Papp A:B ^2 (MDR1-MDCK) (cm/s × 10^−6); B:A/A:B ^2

[1] = Free fraction in plasma (fp); type: in vitro ADME; settings: method ref. 18
From the text: Table 1 LRRK2 wild-type (WT) and G2019S Lanthascreen, MDR1-MDCK permeability (Papp A:B), and efflux ratio (B:A/A:B), free fractions in plasma (fp) and brain homogenate (fb) and PET Multi-Parameter Optimization (MPO) score of Compounds 1, 2, and 3. | column: fp ^3 (%)

[2] = Free fraction in brain homogenate (fb); type: in vitro ADME; settings: method ref. 18
From the text: Table 1 LRRK2 wild-type (WT) and G2019S Lanthascreen, MDR1-MDCK permeability (Papp A:B), and efflux ratio (B:A/A:B), free fractions in plasma (fp) and brain homogenate (fb) and PET Multi-Parameter Optimization (MPO) score of Compounds 1, 2, and 3. | column: fb ^3 (%)

cynomolgus monkey brain = assay: In vivo PET imaging in cynomolgus monkeys; settings: for Blocking effect on [^18F]1 brain binding in vivo: pretreatment 30 min before [^18F]1, GNE-7915 40 mg/kg, PFE-360 0.5 mg/kg iv
From the text: PET measurements were led using a high-resolution research tomograph (HRRT) from Siemens Molecular Imaging (Knoxville, TN, USA). List mode data were reconstructed using the ordinary Poisson-3D-ordered subset expectation maximization (OP-3D-OSEM) algorithm, with 10 repetitions and 16 subsets while modeling the point spread function (PSF). The in-plane resolution accomplished with OP-3D-OSEM and PSF was 1.5 mm full width at half maximum (FWHM) at the center of the field of view (FOV) and 2.4 mm at 10 cm off-center.
The study was approved by the Animal Ethics Committee of the Swedish Animal Welfare Agency and was performed according to “Guidelines for planning, conducting and documenting experimental research” (Dnr 5.2.18-4170/14 issued on 11 April 2014) of the KI as well as the “Guide for the Care and Use of Laboratory Animals” [26]. NHPs were supplied by the Astrid Fagraeus Laboratory (AFL) of the Swedish Institute for Infectious Disease Control (SMI), Solna, Sweden. Anesthesia was brought by intramuscular injection of ketamine hydrochloride (approximately 10 mg/kg) at AFL and continued with a mixture of sevoflurane (0–8.0%), oxygen, and medical air through endotracheal intubation at the KI PET center. The NHP head was immobilized using a homemade fixation device. Body temperature was maintained with a Bair Hugger model 505 (Arizant Healthcare, Eden Prairie, MN, USA) and monitored via an esophageal thermometer. ECG, heart rate, respiratory rate, blood pressure, and oxygen saturation were continuously examined throughout the experiments. The fluid balance was retained with continuous infusion of saline.
A 6 min transmission scan was performed before the injection of the radioligand using a single Cs-137 source. List mode data was acquired continuously for 93 min following intravenous administration of the radioligand. Images were reconstructed into 38 frames with varying intervals: […].
For all PET measurements, radioligands were administered via intravenous injection. Regions of interest (ROIs) were manually delineated on MRI images for each NHP, for the whole brain, cerebellum, caudate, putamen, thalamus, frontal cortex, temporal cortex, amygdala, posterior cingulate cortex, anterior cingulate cortex, hippocampus, occipital cortex, parietal cortex, ventral striatum, and insula. The summed PET images over the entire duration were co-registered with the individual NHP’s MRI image. After applying the co-registration parameters to the dynamic PET data, time–activity curves were generated for each brain region for every PET measurement. The standardized uptake value (SUV) was calculated for each brain region. The total distribution volume (VT) for all three radioligands were derived using one-tissue compartment (1-TC) and two-tissue compartment (2-TC) models.
On two separate occasions, PET measurements were performed after intravenous administration of GEN-7915 or PFE-360 with a slow infusion in one NHP (NHP2). The infusion lasted for 2 min, starting 30 min before PET scanning. The pretreatment formulations were prepared by dissolving it in DMSO (5%), Kolliphor EL (15%), and PBS (80%), and the pH of the final formulation was approximately 4.5–5.0. An automated blood sampling system (ABSS) measured continuous radioactivity for the first 3 min following the radioligand injection, while manual blood samples were taken at 4, 15, 30, 60, and 90 min post-injection to measure the radioactivity and metabolism.

LRRK2 = biological target: T1, LRRK2 (Homo sapiens, UniProt Q5S007); assay: In vitro autoradiography, human whole-hemisphere brain slices; type: binding
T1 construct: Human brains without pathological findings were acquired from the National Institute of Forensic Medicine; from tissue; host or cells: human post-mortem control brain, whole-hemisphere sections (100 µm)
Procedure: Human brains without pathological findings were acquired from the National Institute of Forensic Medicine at Karolinska Institutet in Stockholm, Sweden. These brains were obtained during forensic autopsies (designated as control brain) and were processed in a manner like previously described methods. […] The brain was removed, and its tissues were kept in −85 °C until the sectioning process. The whole brain hemispheric slices were subsequently maintained at −25 °C until the commencement of autoradiography procedures. […] The sectioning of the brain and the autoradiography experiments were performed at the Psychiatry section, Department of Neuroscience, Karolinska Institutet, Sweden.
Whole brain hemispheres were sectioned into horizontal slices with a thickness of 100 µm using a Leica cryomacrocut system. The autoradiographic procedures followed the same protocols established in previous studies conducted in our laboratory. The whole-hemisphere sections of 100 micron thickness were incubated for 90 min at room temperature with their corresponding radiotracer (4 MBq/200 mL) in TRIS buffer (pH 7.4) containing sodium chloride (120 mM), potassium chloride (5 mM), calcium chloride (2 mM), and albumin (0.1% w/v). After incubation, sections were washed three times in the same buffer at room temperature for five minutes each, briefly dipped in ice-cold distilled water, dried, and then placed in the phosphor imaging plates. Binding density standards were prepared by serial dilution of the radioligand stock solution in the assay buffer. Readings were taken with the Fujifilm BAS-5000 (Fujifilm, Tokyo, Japan), while quantitative analysis was conducted with the Multi Gauge 3.2 image analysis software (Fujifilm, Tokyo, Japan). For blocking experiments, adjacent brain sections were co-incubated with LuAF66583 (0.1 µM or 10 µM).

[3] = Radiometabolite analysis in monkey plasma (gradient HPLC); type: in vivo, cynomolgus monkey; settings: baseline PET
Procedure: The technique published earlier was utilized for the analysis of radiometabolites in NHP blood plasma. During the entire PET measurement, the percentage of the injected radioligand and its corresponding radioactive metabolites and radioactivity was measured with a reverse-phase HPLC system with UV absorbance detector (λ = 254 nm) and a radioactive detector. […] The blood samples were centrifuged at 4000 rpm for 2 min to separate plasma. From the centrifuged plasma, the resulting plasma was withdrawn and spiked with 1.4 times its volume of acetonitrile before being spun at 6000 rpm for 4 min. The supernatant, collected after the spun at 6000 rpm, was diluted with 3 mL of water, which was then injected into the HPLC system. The HPLC system was constructed with an Agilent 1200 series binary pump (Agilent, Santa Clara, CA, USA), a Rheodyne 7725i (Thermo Scientific, Waltham, MA, USA) manual injection valve, a 5.0 mL loop, and an Oyokoken S-2493Z radiation detector (Oyokoken, Tokyo, Japan) fitted with 50 mm lead shielding, which houses the detector. Chromatographic separation of the radiometabolites from the unchanged radioligand was performed via gradient elution on a semi-preparative reverse-phase ACE 5 µm C18 HL column (250 × 10 mm) using a mobile phase of acetonitrile (A) and ammonium formate 0.1 M (B). A flow rate of 5.0 mL/min was utilized according to the program 0–6.0 min: (A/B) 40:60 → 90:10 v/v; 6.0–10.0 min: (A/B) 90:10 (v/v). The radioactive peak corresponding to the parent radioligand was then integrated from the data output of the HPLC column. The area of this peak was calculated relative to the total area detected for all radioactive compounds. To evaluate the radioactivity recovery from the system, the measurement was taken from a 2 mL aliquot of the eluate taken from the HPLC column and measured against the total injected radioactivity.

[4] = Plasma protein binding by ultrafiltration; type: in vitro ADME, non-human primate (NHP); settings: cynomolgus monkey, pH 7.4, NHP plasma, baseline
Procedure: The plasma protein binding of all three radioligands was determined in duplicate at the baseline condition according to a previously published method. For each blood plasma sample, 500 μL of non-human primate (NHP) blood plasma was used with 50 μL PBS (pH 7.4 containing KCl 0.2 mg, KH2PO4 0.2 mg, Na2HPO4 1.42 mg, and NaCl 8 mg per mL). The mixture included around 20 MBq of the corresponding radioligand in PBS. Samples underwent incubation at room temperature for 10 min. A small aliquot (20 µL) was taken from each mixture, and radioactivity measurements were performed using a well counter. From each mixture, 200 µL was placed into ultrafiltration tubes (Millipore Centrifree YM-30) and centrifuged at 3000 rpm for 15 minutes. The remaining filtrates were analyzed and aliquots (20 µL) were counted in the well counter described earlier. Protein-bound fractions were calculated as follows:(1) C⥂pla (filtrate) /Cpla (total) ÷CPBS (filtrate) /CPBS (total) ×100(%)
Cpla (total) represents the radioactivity concentration of incubation mixture in plasma and CPBS (total) represents the radioactivity concentration of incubation mixture in PBS. Cpla (filtrate) and CPBS (filtrate) are the radioactivity concentrations from filtrate samples.

[5] = Stability of formulated radioligand in PBS (analytical HPLC); type: physicochemical; settings: sterile PBS, for 60 min
Procedure: The radiochemical purity and stability of all three radioligands ([^11C]3, [^18F]1 and [^18F]2) were determined using analytical HPLC coupled with an XBridge analytical column (C18 5 µm, 4.6 × 150 mm particle size), a Merck-Hitachi L-7100 pump, an L-7400 UV detector, and a GM tube for radioactivity detection (VWR International). A mixture of acetonitrile (25%) and HCO2NH4 (0.1 M aq. solution) (75%) with a flow rate of 2 mL/min was used as HPLC isocratic mobile phase. The HPLC liquid flow was monitored using a UV absorbance detector (λ = 254 nm) in conjunction with a radioactive detector (BETA-flow, Beckman, Fullerton, CA, USA). All three radioligands were eluted with a retention time (tR) of 4.0–4.5 min, and the total run time of the HPLC program was 9 min. The identity of the radiolabeled compound was confirmed by co-injecting the corresponding authentic reference standard.

T1 sequence (Q5S007 whole entry): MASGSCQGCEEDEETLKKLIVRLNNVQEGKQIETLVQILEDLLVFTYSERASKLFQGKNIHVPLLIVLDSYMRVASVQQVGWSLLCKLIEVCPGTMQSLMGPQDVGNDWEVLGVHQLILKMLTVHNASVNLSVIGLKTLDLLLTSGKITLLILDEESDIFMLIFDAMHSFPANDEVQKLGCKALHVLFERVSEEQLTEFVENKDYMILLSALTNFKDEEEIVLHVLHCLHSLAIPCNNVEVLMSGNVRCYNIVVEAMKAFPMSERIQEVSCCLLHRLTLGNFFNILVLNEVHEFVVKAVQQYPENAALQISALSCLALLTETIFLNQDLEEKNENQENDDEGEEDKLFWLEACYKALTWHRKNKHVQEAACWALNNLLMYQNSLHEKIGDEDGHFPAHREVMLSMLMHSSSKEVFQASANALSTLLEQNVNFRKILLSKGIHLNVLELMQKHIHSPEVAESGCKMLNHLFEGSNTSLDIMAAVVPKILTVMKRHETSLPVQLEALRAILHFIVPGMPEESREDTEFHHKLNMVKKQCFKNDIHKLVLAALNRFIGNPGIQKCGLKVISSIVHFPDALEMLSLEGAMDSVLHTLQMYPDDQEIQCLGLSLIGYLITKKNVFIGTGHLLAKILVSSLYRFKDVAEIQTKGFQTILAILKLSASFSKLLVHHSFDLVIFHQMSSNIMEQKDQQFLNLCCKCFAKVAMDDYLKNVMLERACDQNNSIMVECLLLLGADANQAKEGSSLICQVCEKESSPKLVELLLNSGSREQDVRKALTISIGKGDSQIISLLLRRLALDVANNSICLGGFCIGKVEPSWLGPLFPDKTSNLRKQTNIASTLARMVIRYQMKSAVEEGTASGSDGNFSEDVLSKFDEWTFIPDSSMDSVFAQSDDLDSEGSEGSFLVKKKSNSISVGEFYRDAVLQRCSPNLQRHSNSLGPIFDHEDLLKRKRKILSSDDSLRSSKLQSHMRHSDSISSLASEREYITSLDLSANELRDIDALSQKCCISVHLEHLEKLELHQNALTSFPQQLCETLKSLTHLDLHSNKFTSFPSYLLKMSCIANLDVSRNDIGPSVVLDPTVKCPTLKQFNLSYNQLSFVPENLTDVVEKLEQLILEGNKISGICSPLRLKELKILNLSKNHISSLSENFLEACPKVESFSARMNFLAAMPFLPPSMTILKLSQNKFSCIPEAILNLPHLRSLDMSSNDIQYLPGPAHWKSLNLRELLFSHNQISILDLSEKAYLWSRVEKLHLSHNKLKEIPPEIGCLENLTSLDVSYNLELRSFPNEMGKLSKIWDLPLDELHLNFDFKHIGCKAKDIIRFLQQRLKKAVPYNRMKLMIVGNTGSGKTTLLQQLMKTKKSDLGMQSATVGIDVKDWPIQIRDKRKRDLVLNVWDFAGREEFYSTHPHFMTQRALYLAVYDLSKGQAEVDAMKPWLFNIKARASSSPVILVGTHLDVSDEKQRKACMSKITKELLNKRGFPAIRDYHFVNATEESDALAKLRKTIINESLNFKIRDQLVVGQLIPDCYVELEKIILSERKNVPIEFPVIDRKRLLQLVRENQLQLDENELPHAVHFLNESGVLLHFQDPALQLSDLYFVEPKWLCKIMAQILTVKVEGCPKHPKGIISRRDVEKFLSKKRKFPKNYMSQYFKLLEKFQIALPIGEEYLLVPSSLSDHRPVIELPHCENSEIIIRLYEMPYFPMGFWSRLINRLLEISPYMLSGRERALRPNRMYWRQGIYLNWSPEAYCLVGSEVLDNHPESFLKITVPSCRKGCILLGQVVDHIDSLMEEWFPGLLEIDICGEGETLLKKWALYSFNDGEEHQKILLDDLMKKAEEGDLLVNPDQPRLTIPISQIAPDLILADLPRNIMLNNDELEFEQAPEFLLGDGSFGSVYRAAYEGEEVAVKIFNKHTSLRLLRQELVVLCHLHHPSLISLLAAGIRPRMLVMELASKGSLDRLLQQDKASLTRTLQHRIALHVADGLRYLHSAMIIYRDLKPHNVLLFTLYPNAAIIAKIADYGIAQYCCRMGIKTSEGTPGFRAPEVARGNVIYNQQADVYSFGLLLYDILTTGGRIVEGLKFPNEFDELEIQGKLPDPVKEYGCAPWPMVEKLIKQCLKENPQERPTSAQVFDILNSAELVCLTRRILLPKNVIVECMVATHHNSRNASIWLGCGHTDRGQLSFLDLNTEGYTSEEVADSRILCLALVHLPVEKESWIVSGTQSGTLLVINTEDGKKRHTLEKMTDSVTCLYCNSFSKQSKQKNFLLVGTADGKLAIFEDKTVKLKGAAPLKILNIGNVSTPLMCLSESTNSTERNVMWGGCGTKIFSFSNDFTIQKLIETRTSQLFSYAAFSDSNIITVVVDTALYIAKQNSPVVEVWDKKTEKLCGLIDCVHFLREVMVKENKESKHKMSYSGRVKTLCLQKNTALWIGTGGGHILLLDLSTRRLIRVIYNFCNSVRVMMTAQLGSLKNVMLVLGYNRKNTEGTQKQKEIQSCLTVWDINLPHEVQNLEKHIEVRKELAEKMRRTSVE
Sequence of LRRK2 G2019S (Q5S007 whole entry G2019S): as the sequence (Q5S007 whole entry) above, with G2019S counted along it
Sequence of LRRK2 wild-type (WT) (Q5S007 whole entry): as the sequence (Q5S007 whole entry) above

## C[C@@H]1C[C@@H](F)CN1c1c(C#N)c2c(N)ncnc2n1C [Compound 2, 4-Amino-6-((2R,4R)-4-fluoro-2-methylpyrrolidin-1-yl)-7-methyl-7H-pyrrolo[2,3-d]pyrimidine-5-carbo nitrile]
LRRK2 wild-type (WT)
  Ki: 0.32 nM
LRRK2 G2019S
  Ki: 0.37 nM
MDR1 (P-gp); MDCK-MDR1
  Papp A→B: 44 ×10⁻⁶ cm/s
MDR1 (P-gp); MDR1-MDCK, read-out: B:A/A:B (efflux ratio)
  efflux ratio: 0.66
[1]
  fraction unbound: 0.47
[2]
  fraction unbound: 0.23

## CCNc1nc(Nc2cc(F)c(C(=O)N3CCOCC3)cc2OC)ncc1C(F)(F)F [GEN-7915, reference compound]
Cynomolgus monkey brain
  Blocking effect on [^18F]1 brain binding in vivo: no clear blocking effects

## Cn1cc(-c2c[nH]c3ncnc(N4CCOCC4)c23)cc1C#N [PFE-360, reference compound]
LRRK2; human brain slice, pre-incubation with 0.1 µM
  Effect on [^18F]1 binding (ARG): did not significantly reduce
LRRK2; human striatum, hippocampus, cerebellum, pretreated with 10 µM
  Effect on [^18F]2 binding (ARG): significantly reduced
Cynomolgus monkey brain
  Blocking effect on [^18F]1 brain binding in vivo: no clear blocking effects

## C[C@@H]1CCCN1c1c(C#N)c2c(N)nc(Nc3cnn([11CH3])c3)nc2n1C [[^11C]3, (R)-4-Amino-7-methyl-2-((1-[^11C]methyl-1H-pyrazol-4-yl)amino)-6-(2-methylpyrrolidin-1-yl)-7H-pyrrolo[2,3-d]pyrimidine-5-carbonitrile]
Cynomolgus monkey brain; PET, iv, baseline
  Brain uptake: > 1 %ID
  Brain washout: rapid washout
  Regional distribution of brain uptake: no significant regional differences
[3]; at 5 min
  Parent compound, share of eluted plasma radioactivity: over 90%
[3]; at 90 min
  Parent compound, share of eluted plasma radioactivity: around 10%
[4]; read-out: Free fraction in plasma (fP)
  fraction unbound at 10 min: ~0.15
[4]; read-out: Plasma protein binding (converted)
  fraction unbound at 10 min: < 0.15
[5]
  Radiochemical purity maintained in formulation: exceeding 99%
